Test results reported in publication PMC10945559, “Forgotten Natural Products: Semisynthetic Development of Blasticidin S As an Antibiotic Lead” (ACS Medicinal Chemistry Letters, 2024).
≈ marks a conversion by molar mass, not a printed value. Where two headings read alike, the source gives them in different places. Marks after values point to notes of the source that are not given here.

Assays:
S. aureus 8810 = experiment: Broth microdilution antibacterial assay; assay type: cell-based, Staphylococcus aureus; conditions: for Selectivity index (CC50/IC50): MRC-5 CC50 / S. aureus IC50; for IC50 / MIC: Staphylococcus aureus, 8810; for IC50: average of two biological replicates ± S.D., read-out: IC50
Procedure: (§1) Antibacterial Assay Procedure
(§2) Broth Microdilution Assays
(§3) Media and solutions were autoclaved or sterile filtered prior to use and manipulations were carried out in a laminar flow hood. Antibacterial testing was performed in polypropylene 96 -well flat bottom plates. The minimal inhibitory concentration of blasticidin S ( 1) hydrochloride, P10 (2), and derivatives 15–22 were assessed against Staphylococcus aureus ΔNorA, S. aureus 8810, methicillin-resistant S. aureus (MRSA) ATCC 43300, Enterococcus faecalis ATCC 29212, vancomycin-resistant Enterococcus, Klebsiella pneumoniae ATCC 29665, Pseudomonas aeruginosa, and Acinetobacter baumannii ATCC 17978 using serial dilutions. Doxycycline (Gold Bio) as a positive control and the vehicle as a negative control. Stock solutions of each compound were prepared at 5.12 mg/mL in 50% DMSO/water and serially diluted in 50% DMSO/water to create master plates. From the master plates, 10 μL of each dilution was applied to test plates using a Bravo automated liquid transfer system (Agilent). Bacteria previously grown overnight (37 °C, 120 – 200 RPM), in LB broth were diluted to an OD600 of 0.0 5 in cation-adjusted Mueller-Hinton broth, grown to an OD600 of ~0.5, and diluted to an OD600 of 0.004 in cation-adjusted Mueller-Hinton broth. These diluted cultures were applied to the test plates (190 μL per test well) resulting in final concentrations of the test compounds of 256–2 μg/mL. Growth controls (wells with inoculated media but no vehicle or test compounds) were included to assess any potential toxicity from the vehicle. The plates were incubated at 37 °C for 16–18 h, except for VRE and E. faecalis, which were incubated at 37 °C for 24 h. Inhibition was determined by measuring the optical density at 600 nm (OD600) with a Cytation 3 plate reader (BioTek). The optical density measurements were normalized to the positive and negative controls and the vehicle and growth controls were compared and found to be indistinguishable, indicating no toxicity from the vehicle used. The MIC was the lowest concentration that inhibited >90% of growth. Two biological replicates were performed in duplicate. MIC values are reported […]
(§4) as a range from biological replicates. Inhibition curves were generated using Prism (GraphPad).
(§5) The IC50 values reported in Table 2 are the average of the two biological replicates ± standard […]
(§6) Cytotoxicity Assay Procedure
(§7) Human lung fibroblast cells, MRC -5 (CCL-171), were cultured at 37℃ with 5% CO2 and were plated at 5000 cells/well in a 96 -well plate. Compounds 1, 2, and 15-22 were initially prepared at concentrations of 5.12 mg/mL in a vehicle of 50% DMSO. Dilutions of the compounds (4 – 512 μg/mL) were then prepared in growth medium containing Dulbecco’s modified Eagle’s medium (DMEM) with high glucose, L -glutamine, and sodium pyruvate supplemented with 10% fetal bovine serum (FBS), 1% non -essential amino acids, and 0.1% gentamicin sulfate, and 25mM HEPES. The vehicle (50% DMSO) was also prepared via the sa me dilution series to serve as a control. Growth media was removed from the cells and replaced with the same volume of each compound dilution. Cells were incubated for 24 h , after which CellTiter 96® AQueous One Solution Reagent was added to each well as recommended by the manufacturer’s protocol (Promega CellTiter 96 AQueous One Solution Cell Proliferation Assay) and further incubated for 4 h. After incubation, absorbance was measured at 490 nm on an Infinite M plex multimode microplate reader with i -control Tecan software. Viability was calculated by subtracting media only absorbance values and normalizing to the vehicle control at each concentration. The presented data is one assay performed in triplicate that is representative of multiple trials. Data for the 256 and 512 μg/mL concentrations were removed from analysis due to vehicle toxicity […]
(§8) CC50 concentrations were determined via the ED50 Plus v1.0 software (https://archive.org/details/ed50v10_zip).

[1] = tested on: methicillin-resistant S. aureus (MRSA) ATCC 43300; experiment: Broth microdilution antibacterial assay; assay type: cell-based, Staphylococcus aureus; conditions: for Selectivity index (CC50/IC50): MRC-5 CC50 / MRSA IC50; for IC50 / MIC: Staphylococcus aureus; for IC50: average of two biological replicates ± S.D., read-out: IC50
Procedure: as §1, §2, §3, §4, §5, §6, §7, §8

[2] = tested on: Acinetobacter baumannii ATCC 17978; experiment: Broth microdilution antibacterial assay; assay type: cell-based; conditions: for IC50 / MIC: Acinetobacter baumannii, ATCC17978, A. baumannii; for IC50: average of two biological replicates ± S.D., read-out: IC50; for MIC: lowest concentration inhibiting >90% of growth, range from biological replicates, read-out: MIC; for Selectivity index (CC50/IC50): MRC-5 CC50 / A. baumannii IC50
Procedure: as §1, §2, §3, §4, §5, §6, §7, §8

[3] = tested on: Enterococcus faecalis ATCC 29212; experiment: Broth microdilution antibacterial assay; assay type: cell-based; conditions: for MIC / IC50: Enterococcus faecalis, ATCC29212; for IC50: average of two biological replicates ± S.D. (18: one biological replicate), read-out: IC50; for Selectivity index (CC50/IC50): MRC-5 CC50 / E. faecalis IC50
Procedure: as §1, §2, §3, §4, §5, §6, §7, §8

[4] = tested on: Klebsiella pneumoniae ATCC 29665; experiment: Broth microdilution antibacterial assay; assay type: cell-based; conditions: for IC50 / MIC: Klebsiella pneumoniae, ATCC29665, K. pneumoniae; for IC50: average of two biological replicates ± S.D., read-out: IC50; for MIC: lowest concentration inhibiting >90% of growth, range from biological replicates, read-out: MIC; for Selectivity index (CC50/IC50): MRC-5 CC50 / K. pneumoniae IC50
Procedure: as §1, §2, §3, §4, §5, §6, §7, §8

Pseudomonas aeruginosa = experiment: Broth microdilution antibacterial assay; assay type: cell-based; conditions: for Selectivity index (CC50/IC50): MRC-5 CC50 / P. aeruginosa IC50; for MIC / IC50: Pseudomonas aeruginosa; for IC50: average of two biological replicates ± S.D., read-out: IC50
Procedure: as §1, §2, §3, §4, §5, §6, §7, §8

[5] = tested on: Staphylococcus aureus ΔNorA; experiment: Broth microdilution antibacterial assay; assay type: cell-based; conditions: for Selectivity index (CC50/IC50): MRC-5 CC50 / S. aureus ΔNorA IC50; for IC50 / MIC: Staphylococcus aureus
Procedure: as §1, §2, §3, §4, §5, §6, §7, §8

[6] = tested on: vancomycin-resistant Enterococcus (VRE); experiment: Broth microdilution antibacterial assay; assay type: cell-based; conditions: for MIC / IC50: Enterococcus; for IC50: average of two biological replicates ± S.D., read-out: IC50; for Selectivity index (CC50/IC50): MRC-5 CC50 / VRE IC50
Procedure: as §1, §2, §3, §4, §5, §6, §7, §8

in vitro = assay type: cell-based, human; conditions: human; MRC-5 (lung fibroblast); 24 h; one biological replicate (n = 3); read-out: CC50 for human cells
Procedure: as §4, §5, §6, §7, §8
Figure S41. The effect of compounds on cell viability. The lines represent non -linear regression curves, and error bars represent means ± […]
SD (n=3). […]

[7] = S. aureus, lowest concentration inhibiting >90% of growth, range from biological replicates, read-out: MIC
[8] = average MIC, Table S3, read-out: Average Activity against S. aureus
[9] = MRSA, lowest concentration inhibiting >90% of growth, range from biological replicates, read-out: MIC
[10] = average MIC, Table S3, read-out: Average Activity against MRSA
[11] = E. faecalis, 24 h, lowest concentration inhibiting >90% of growth, range from biological replicates, read-out: MIC
[12] = average MIC, Table S3, read-out: Average Activity against E. faecalis
[13] = VRE, average MIC, Table S3, read-out: Average Activity against VRE
[14] = VRE, 24 h, lowest concentration inhibiting >90% of growth, range from biological replicates, read-out: MIC

Compound | Selectivity index (CC50/IC50) (S. aureus 8810) | IC50 (S. aureus 8810; S. aureus) [µg/mL] | MIC (S. aureus 8810; [7]) [µg/mL] | MIC (S. aureus 8810; [8]) [µg/mL] | Selectivity index (CC50/IC50) [1] | IC50 ([1]; MRSA) [µg/mL] | MIC [1, 9] [µg/mL] | MIC [1, 10] [µg/mL] | IC50 [2] [µg/mL] | MIC [2] [µg/mL] | Selectivity index (CC50/IC50) [2] | MIC [3, 11] [µg/mL] | IC50 ([3]; E. faecalis) [µg/mL] | MIC [3, 12] [µg/mL] | Selectivity index (CC50/IC50) [3] | IC50 [4] [µg/mL] | MIC [4] [µg/mL] | Selectivity index (CC50/IC50) [4] | Selectivity index (CC50/IC50) (Pseudomonas aeruginosa) | IC50 (Pseudomonas aeruginosa; P. aeruginosa) [µg/mL] | other results
CN(C)C(=O)[C@H]1O[C@@H](n2ccc(N)nc2=O)C=C[C@@H]1NC(=O)C[C@@H](N)CCN(C)C(=N)N [Compound 18] | 9.1 | 7 ± 1.5 (≈ 15.6 µM) | 64 (≈ 142 µM) | 64 (≈ 142 µM) | 5.0 | 12.8 ± 1.9 (≈ 28.5 µM) | 32 (≈ 71.2 µM) | 32 (≈ 71.2 µM) | 46.4 ± 7 (≈ 103 µM) | 256 (≈ 570 µM) | 1.4 | 16 to 32 (≈ 35.6 to 71.2 µM) | 17 (≈ 37.8 µM) | 32 (≈ 71.2 µM) | 3.7 ^b | 60.1 ± 4.7 (≈ 134 µM) | 256 (≈ 570 µM) | 1.1 | 3.4 | 18.8 ± 2.6 (≈ 41.8 µM) | MIC (Pseudomonas aeruginosa): 64 to 128 µg/mL (≈ 142 to 285 µM); Selectivity index (CC50/IC50) [5]: 3.5; IC50 [5]: 18.3 ± 1.4 µg/mL (≈ 40.7 µM); MIC [5]: 128 µg/mL (≈ 285 µM); MIC ([6]; VRE, 24 h): 64 to 128 µg/mL (≈ 142 to 285 µM); MIC [6, 13]: 96 µg/mL (≈ 214 µM); IC50 ([6]; VRE): 27.7 ± 11 µg/mL (≈ 61.6 µM); Selectivity index (CC50/IC50) [6]: 2.3; CC50 at 24 h (in vitro): 63.9 µg/mL (≈ 142 µM)
CNC(=O)[C@H]1O[C@@H](n2ccc(N)nc2=O)C=C[C@@H]1NC(=O)C[C@@H](N)CCN(C)C(=N)N [Compound 15, Methyl amide] | 8.9 | 5.9 ± 1.2 (≈ 13.5 µM) | 32 (≈ 73.5 µM) | 32 (≈ 73.5 µM) | 4.0 | 13.3 ± 3.3 (≈ 30.5 µM) | 32 to 64 (≈ 73.5 to 147 µM) | 48 (≈ 110 µM) | 18.3 ± 5.3 (≈ 42 µM) | 64 (≈ 147 µM) | 2.9 | 16 to 32 (≈ 36.7 to 73.5 µM) | 13.2 ± 3.6 (≈ 30.3 µM) | 32 (≈ 73.5 µM) | 4.0 | 26.4 ± 4.1 (≈ 60.6 µM) | 64 (≈ 147 µM) | 2.0 | 2.6 | 20.2 ± 3.4 (≈ 46.4 µM) | MIC (Pseudomonas aeruginosa): 64 to 128 µg/mL (≈ 147 to 294 µM); Selectivity index (CC50/IC50) [5]: 2.5; IC50 [5]: 21.1 ± 0.4 µg/mL (≈ 48.5 µM); MIC [5]: 128 µg/mL (≈ 294 µM); MIC [6, 13]: 32 µg/mL (≈ 73.5 µM); MIC [6, 14]: 32 µg/mL (≈ 73.5 µM); IC50 ([6]; VRE): 13.5 ± 3.6 µg/mL (≈ 31 µM); Selectivity index (CC50/IC50) [6]: 3.9; CC50 at 24 h (in vitro): 52.8 µg/mL (≈ 121 µM)
CN(CC[C@H](N)CC(=O)N[C@H]1C=C[C@H](n2ccc(N)nc2=O)O[C@@H]1C(=O)NCCc1ccccc1)C(=N)N [Compound 22] | 15 | 3.8 ± 0.2 (≈ 7.23 µM) | 16 (≈ 30.4 µM) | 12 (≈ 22.8 µM) | 15 | 4 ± 0.3 (≈ 7.61 µM) | 8 to 16 (≈ 15.2 to 30.4 µM) | 12 (≈ 22.8 µM) | 183 ± 19 (≈ 348 µM) | > 256 | 0.3 | 8 (≈ 15.2 µM) | 6.1 ± 2.6 (≈ 11.6 µM) | 8 (≈ 15.2 µM) | 9.6 | 36.9 ± 4.7 (≈ 70.2 µM) | 256 (≈ 487 µM) | 1.6 | 3.5 | 16.5 ± 2.1 (≈ 31.4 µM) | better activity than the phenethyl ester of the previous study (S. aureus 8810; S. aureus, ester data ref 8): 4- to 8 fold; increase in potency compared to 1 ([1]; MRSA, MIC): 16 to 32 fold; better activity than the phenethyl ester of the previous study ([1]; MRSA, ester data ref 8): 4- to 8 fold; MIC (Pseudomonas aeruginosa; P. aeruginosa, lowest concentration inhibiting >90% of growth, range from biological replicates, read-out: MIC): 64 µg/mL (≈ 122 µM); Selectivity index (CC50/IC50) [5]: 3.0; IC50 [5]: 19.3 ± 0.2 µg/mL (≈ 36.7 µM); MIC [5]: 128 µg/mL (≈ 244 µM); MIC [6, 13]: 32 µg/mL (≈ 60.9 µM); MIC [6, 14]: 32 µg/mL (≈ 60.9 µM); IC50 ([6]; VRE): 11.1 ± 0.8 µg/mL (≈ 21.1 µM); Selectivity index (CC50/IC50) [6]: 5.2; increase in potency compared to 1 ([6]; VRE, MIC): 8 fold; CC50 at 24 h (in vitro): 58.4 µg/mL (≈ 111 µM)
